Reference: US20250059187A1, “COVALENTLY BINDING INHIBITORS OF G12S, G12D AND/OR G12E MUTANTS OF K-RAS GTPASE” (The Regents of the University of California, priority 2021, published 2025)

Legend:
[1] = biological target: T1, wild type K-Ras (Homo sapiens, UniProt P01116); assay: Covalent modification of recombinant wild-type K-Ras by whole-protein mass spectrometry; assay type: binding; details: 10 μM, 23° C., after 1 h
T1 construct: human K-Ras (wildtype, aa 1-169); 6xHis tag + TEV cleavage site (N, cleaved yes); made in house; host or cells: E. coli BL21(DE3)

[2] = biological target: T2, K-Ras G12D (Homo sapiens, UniProt P01116, G12D); assay: Covalent modification of recombinant K-Ras(G12D) by whole-protein mass spectrometry; assay type: binding; details: 10 μM, 23° C.
T2 construct: human K-Ras (G12D, aa 1-169); 6xHis tag + TEV cleavage site (N, cleaved yes); made in house; host or cells: E. coli BL21(DE3)
Method: (§1) Test compounds were prepared as 100× stock solutions in DMSO. K-Ras proteins were diluted with SEC Buffer (20 mM HEPES 7.5, 150 mM NaCl, 1 mM MgCl2) to 400 nM or 1 μM. In a typical reaction, 0.5 μL 100× compound stock was mixed with 50 μL diluted K-Ras protein, and the resulting mixture was incubated for the desired amount of time. The extent of modification was assessed by electrospray mass spectrometry using a Waters Xevo G2-XS system equipped with an Acquity UPLC BEH C4 1.7 μm column. The mobile phase was a linear gradient of 5-95% acetonitrile/water+0.05% formic acid. For kinetic measurements, a 2× compound solution was first prepared in SEC Buffer, which was then mixed with 400 nM K-Ras(G12D) protein at 1:1 (v/v) ratio. Injection time stamps were used to calculate elapsed time.

[3] = biological target: T3, K-Ras(G13D) (Homo sapiens, UniProt P01116, G13D); assay: Covalent modification of recombinant K-Ras(G13D) by whole-protein mass spectrometry; assay type: binding; details: 10 μM, 23° C., after 1 h
T3 construct: human K-Ras (G13D, aa 1-169); 6xHis tag + TEV cleavage site (N, cleaved yes); made in house; host or cells: E. coli BL21(DE3)
Method: as §1

[4] = biological target: T4, K-Ras G12E (Homo sapiens, UniProt P01116, G12E); assay: Covalent modification of recombinant K-Ras(G12E) by whole-protein mass spectrometry; assay type: binding; details: 10 μM, 23° C.
T4 construct: human K-Ras (G12E, aa 1-169); 6xHis tag + TEV cleavage site (N, cleaved yes); made in house; host or cells: E. coli BL21(DE3)
Method: as §1

[5] = biological target: T2, K-Ras G12D; assay: Differential scanning fluorimetry of K-Ras(G12D) and its covalent adducts; assay type: binding
Method: The protein of interest was diluted with SEC Buffer [20 mM HEPES 7.5, 150 mM NaCl, 1 mM MgCl2] to 8 μM. This solution was dispensed into wells of a white 96-well PCR plate in triplicate (25 μL/well). Fluorescence was measured at 0.5-° C. temperature intervals every 30 s from 25° C. to 95° C. on a Bio-Rad CFX96 qPCR system using the FRET setting. Each data set was normalized to the highest fluorescence and the normalized fluorescence reading was plotted against temperature in GraphPad Prism 8.0. Tm values were determined as the temperature(s) corresponding to the maximum(ma) of the first derivative of the curve.

[6] = biological target: T5, interaction between Raf-RBD and K-Ras(G12D) (Homo sapiens, UniProt P01116, G12D); assay: Time-resolved fluorescence energy transfer assay, Raf-RBD and K-Ras(G12D); assay type: biochemical; details: dose-dependent
T5 construct: human K-Ras (G12D, aa 1-169); 6xHis tag + TEV cleavage site (N); made in house; host or cells: E. coli BL21(DE3) for K-Ras

[7] = biological target: T6, interaction between Raf-RBD and wildtype K-Ras (Homo sapiens, UniProt P01116); assay: Time-resolved fluorescence energy transfer assay, Raf-RBD and wildtype K-Ras; assay type: biochemical
T6 construct: human K-Ras (wildtype, aa 1-169); 6xHis tag + TEV cleavage site (N); made in house; host or cells: E. coli BL21(DE3) for K-Ras

[8] = biological target: T7, Raf-RBD / K-Ras(G12D)·GppNHp (Homo sapiens, UniProt P01116, G12D); assay: Biolayer interferometry, Raf-RBD binding of the K-Ras(G12D)·GppNHp adduct; details: compared to unmodified K-Ras(G12D)·GppNHp
T7 construct: human K-Ras (G12D, aa 1-169); 6xHis tag + TEV cleavage site (N); made in house; host or cells: E. coli BL21(DE3) for K-Ras

[9] = biological target: T2, K-Ras G12D; assay: Stability of the adduct between K-Ras(G12D) and the compound
[10] = test system: KRAS G12D mutation cancer cell lines; assay: Growth inhibition of KRAS G12D cancer cell lines; assay type: cell-based
Method: Cells were seeded into 96-well white flat bottom plates (1,000 cells/well) (Corning) and incubated overnight. Cells were treated with the indicated compounds in a nine-point threefold dilution series (100 μL final volume) and incubated for 72 h. Cell viability was assessed using a commercial CellTiter-Glo (CTG) luminescence-based assay (Promega). Briefly, the 96-well plates were equilibrated to room temperature before the addition of diluted CTG reagent […] (1:4 CTG reagent:PBS). Plates were placed on an orbital shaker for 30 min before recording luminescence using a Spark 20M (Tecan) plate reader.

[11] = biological target: K-Ras(G12S) (Homo sapiens, UniProt P01116, G12S); assay: Covalent modification of recombinant K-Ras(G12S) by whole-protein mass spectrometry; assay type: binding; parameters: human K-Ras (G12S, aa 1-169); 6xHis tag + TEV cleavage site (N, cleaved yes); made in house; host or cells: E. coli BL21(DE3); details: 10 μM compound, 23° C.
Method in brief: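 Recombinant K-Ras diluted to 400 nM or 1 μM in 20 mM HEPES pH 7.5, 150 mM NaCl, 1 mM MgCl2 and incubated with compound added from 100× DMSO stock. Modification extent measured by electrospray whole-protein mass spectrometry; kinetics used 1:1 mixing with 400 nM protein and injection time stamps for elapsed time.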

Which results are given for C#Cc1cccc2cccc(-c3ncc4c(N5C[C@H]6CC[C@@H](C5)N6C(=O)C5CC(=O)O5)nc(OCC56CCCN5CCC6)nc4c3F)c12 (mixture of isomers) [Compound 1]?
modification of K-Ras(wildtype)·GDP [1]: no detectable modification; activity against GppNHp-bound K-Ras(G12D) [2]: also active against the GppNHp-bound K-Ras(G12D); time to full modification of K-Ras(G12D)·GDP [2]: less than 15 minutes; modification of K-Ras(G13D)·GDP [3]: 6.5±0.3%; reactivity with K-Ras(G12E)·GDP [4]: markedly reduced reactivity; ΔTm of K-Ras(G12D)·GDP on covalent modification ([5]; GDP state): +10.3 °C; ΔTm of K-Ras(G12D)·GppNHp on covalent modification ([5]; GppNHp state): +2.5 °C; interaction between Raf-RBD and K-Ras(G12D) [6]: inhibited the interaction between Raf-RBD and K-Ras(G12D); interaction between Raf-RBD and wildtype K-Ras [7]: not wildtype K-Ras; binding of the K-Ras(G12D)·GppNHp adduct to Raf-RBD [8]: substantially decreased binding to Raf-RBD; stability of the K-Ras(G12D) adduct over pH [9]: stable over a range of pH (5.0-8.5); stability of the K-Ras(G12D) adduct with DTT ([9]; 1 mM DTT, 23° C.): did not degrade in the presence of 1 mM DTT; growth of KRAS G12D cancer cell lines [10]: inhibited growth of KRAS^G12D cancer cell lines; covalent reaction with K-Ras(G12S)·GDP [11]: did not react with K-Ras(G12S)·GDP
